Experimental data from ChEMBL document CHEMBL5244205, “Discovery of tricyclic dipyrrolopyridine derivatives as novel JAK inhibitors” (Bioorg Med Chem, 2017).

Columns and labels:
in vitro [1] = conditions: PAMPA, pH 6.5, permeability
Description: Permeability of the compound in pH 6.5 incubated for 2 hrs by PAMPA based HPLC analysis

[2] = target: Tyrosine-protein kinase JAK2 (Homo sapiens, UniProt O60674)
Description: Inhibition of human JAK2 kinase domain using biotin-Lyn-substrate-2 as substrate incubated for 1 hr by ELISA

[3] = target: T1, Tyrosine-protein kinase JAK3 (Homo sapiens, UniProt P52333)
T1 sequence (P52333 whole entry): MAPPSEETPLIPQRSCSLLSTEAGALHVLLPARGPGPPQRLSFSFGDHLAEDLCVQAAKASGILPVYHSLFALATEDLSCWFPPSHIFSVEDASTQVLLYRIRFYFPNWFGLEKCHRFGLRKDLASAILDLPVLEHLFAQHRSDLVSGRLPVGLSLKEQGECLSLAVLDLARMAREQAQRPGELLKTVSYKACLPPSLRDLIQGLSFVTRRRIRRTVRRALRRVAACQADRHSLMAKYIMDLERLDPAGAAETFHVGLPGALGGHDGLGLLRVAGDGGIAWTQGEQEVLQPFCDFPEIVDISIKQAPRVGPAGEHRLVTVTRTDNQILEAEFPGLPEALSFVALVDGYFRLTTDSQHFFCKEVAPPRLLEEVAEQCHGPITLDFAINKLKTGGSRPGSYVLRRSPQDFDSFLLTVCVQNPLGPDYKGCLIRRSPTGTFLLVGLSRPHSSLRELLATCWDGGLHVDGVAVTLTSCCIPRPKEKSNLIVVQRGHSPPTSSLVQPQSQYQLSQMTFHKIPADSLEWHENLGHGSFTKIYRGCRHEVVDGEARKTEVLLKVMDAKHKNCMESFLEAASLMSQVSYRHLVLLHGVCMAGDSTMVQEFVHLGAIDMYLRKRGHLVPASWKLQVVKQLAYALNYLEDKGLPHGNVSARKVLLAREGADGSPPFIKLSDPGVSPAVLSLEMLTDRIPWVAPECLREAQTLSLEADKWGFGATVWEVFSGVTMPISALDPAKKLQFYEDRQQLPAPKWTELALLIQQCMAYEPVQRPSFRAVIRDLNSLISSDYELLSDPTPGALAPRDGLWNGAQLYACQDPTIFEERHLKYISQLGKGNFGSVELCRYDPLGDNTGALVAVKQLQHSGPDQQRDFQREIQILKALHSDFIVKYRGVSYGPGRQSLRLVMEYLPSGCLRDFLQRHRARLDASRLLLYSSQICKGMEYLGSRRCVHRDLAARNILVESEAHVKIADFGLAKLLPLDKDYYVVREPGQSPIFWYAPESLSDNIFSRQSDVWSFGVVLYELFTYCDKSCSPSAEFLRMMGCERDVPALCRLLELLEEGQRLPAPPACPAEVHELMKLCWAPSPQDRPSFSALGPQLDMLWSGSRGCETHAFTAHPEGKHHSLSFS
Description: Inhibition of human JAK3 kinase domain using biotin-Lyn-substrate-2 as substrate incubated for 1 hr by ELISA

[4] = target: Tyrosine-protein kinase JAK1 (Homo sapiens, UniProt P23458)
Description: Inhibition of human JAK1 kinase domain using biotin-Lyn-substrate-2 as substrate incubated for 1 hr by ELISA

in vitro [5] = conditions: Sprague-Dawley, rat, liver microsomes, CLH
CYP3A4 = CYP3A4 (Homo sapiens, UniProt P08684); assay: in vitro; conditions: liver microsomes, probe midazolam, TDI
[6] = target: Tyrosine-protein kinase Lck (Homo sapiens) (UniProt P06239); assay: Inhibition of LCK (unknown origin) at 1000 nM relative to control
[7] = target: Protein kinase C alpha type (Homo sapiens) (UniProt P17252); assay: Inhibition of PKCalpha (unknown origin) at 1000 nM relative to control
[8] = target: Rho-associated protein kinase 1 (Homo sapiens) (UniProt Q13464); assay: Inhibition of ROCK1 (unknown origin) at 1000 nM relative to control
[9] = Clearance in Sprague-Dawley rat at 1 mg/kg, iv measured up to 24 hrs by LC-MS/MS analysis; type: ADME, organism-based; conditions: in vivo
[10] = Volume of distribution in Sprague-Dawley rat at 1 mg/kg, iv measured up to 24 hrs by LC-MS/MS analysis; type: ADME, organism-based; conditions: in vivo
[11] = Half life in Sprague-Dawley rat at 1 mg/kg, iv measured up to 24 hrs by LC-MS/MS analysis; type: ADME, organism-based; conditions: in vivo
[12] = AUC (0 to 24 hrs) in Sprague-Dawley rat at 1 mg/kg, iv measured up to 24 hrs by LC-MS/MS analysis; type: ADME, organism-based; parameters: dose 1 mg/kg, time < 24 hrs, route iv; conditions: in vivo
[13] = Cmax in Sprague-Dawley rat at 1 mg/kg, po measured up to 24 hrs by LC-MS/MS analysis; type: ADME, organism-based; parameters: time < 24 hrs, dose 1 mg/kg, route po; conditions: in vivo
[14] = Half life in Sprague-Dawley rat at 1 mg/kg, po measured up to 24 hrs by LC-MS/MS analysis; type: ADME, organism-based; conditions: in vivo
[15] = AUC (0 to 24 hrs) in Sprague-Dawley rat at 1 mg/kg, po measured up to 24 hrs by LC-MS/MS analysis; type: ADME, organism-based; parameters: dose 1 mg/kg, time < 24 hrs, route po; conditions: in vivo
[16] = Oral availability in Sprague-Dawley rat at 1 mg/kg measured up to 24 hrs by LC-MS/MS analysis; type: ADME, organism-based; conditions: in vivo
[17] = Tmax in Sprague-Dawley rat at 1 mg/kg, po measured up to 24 hrs by LC-MS/MS analysis; type: ADME, organism-based; conditions: in vivo
Homo sapiens = species: Homo sapiens; assay: Selectivity index, ratio of IC50 for human JAK3 to IC50 for human JAK2
[18] = target: Proto-oncogene tyrosine-protein kinase Src (Homo sapiens, UniProt P12931); assay: Inhibition of SRC (unknown origin) at 1000 nM relative to control
[19] = target: High affinity nerve growth factor receptor (Homo sapiens, UniProt P04629); assay: Inhibition of TRKA (unknown origin) at 1000 nM relative to control
[20] = target: RAC-alpha serine/threonine-protein kinase (Homo sapiens, UniProt P31749); assay: Inhibition of AKT1 (unknown origin) at 1000 nM relative to control
[21] = target: Aurora kinase C (Homo sapiens) (UniProt Q9UQB9); assay: Inhibition of AURC (unknown origin) at 1000 nM relative to control
[22] = target: Calcium/calmodulin-dependent protein kinase type II subunit alpha (Homo sapiens, UniProt Q9UQM7); assay: Inhibition of CAMK2alpha (unknown origin) at 1000 nM relative to control
[23] = target: Cyclin-dependent kinase 2 (Homo sapiens, UniProt P24941); assay: Inhibition of CDK2 (unknown origin) at 1000 nM relative to control
[24] = target: Serine/threonine-protein kinase Chk1 (Homo sapiens) (UniProt O14757); assay: Inhibition of CHK1 (unknown origin) at 1000 nM relative to control
[25] = target: Glycogen synthase kinase-3 beta (Homo sapiens, UniProt P49841); assay: Inhibition of GSK3beta (unknown origin) at 1000 nM relative to control
[26] = target: Mitogen-activated protein kinase 8 (Homo sapiens, UniProt P45983); assay: Inhibition of JNK1 (unknown origin) at 1000 nM relative to control
[27] = target: Dual specificity mitogen-activated protein kinase kinase 1 (Homo sapiens, UniProt Q02750); assay: Inhibition of MAP2K1 (unknown origin) at 1000 nM relative to control
[28] = target: Ribosomal protein S6 kinase beta-1 (Homo sapiens, UniProt P23443); assay: Inhibition of p70S6K (unknown origin) at 1000 nM relative to control

Sequence of Tyrosine-protein kinase JAK1 (P23458 whole entry): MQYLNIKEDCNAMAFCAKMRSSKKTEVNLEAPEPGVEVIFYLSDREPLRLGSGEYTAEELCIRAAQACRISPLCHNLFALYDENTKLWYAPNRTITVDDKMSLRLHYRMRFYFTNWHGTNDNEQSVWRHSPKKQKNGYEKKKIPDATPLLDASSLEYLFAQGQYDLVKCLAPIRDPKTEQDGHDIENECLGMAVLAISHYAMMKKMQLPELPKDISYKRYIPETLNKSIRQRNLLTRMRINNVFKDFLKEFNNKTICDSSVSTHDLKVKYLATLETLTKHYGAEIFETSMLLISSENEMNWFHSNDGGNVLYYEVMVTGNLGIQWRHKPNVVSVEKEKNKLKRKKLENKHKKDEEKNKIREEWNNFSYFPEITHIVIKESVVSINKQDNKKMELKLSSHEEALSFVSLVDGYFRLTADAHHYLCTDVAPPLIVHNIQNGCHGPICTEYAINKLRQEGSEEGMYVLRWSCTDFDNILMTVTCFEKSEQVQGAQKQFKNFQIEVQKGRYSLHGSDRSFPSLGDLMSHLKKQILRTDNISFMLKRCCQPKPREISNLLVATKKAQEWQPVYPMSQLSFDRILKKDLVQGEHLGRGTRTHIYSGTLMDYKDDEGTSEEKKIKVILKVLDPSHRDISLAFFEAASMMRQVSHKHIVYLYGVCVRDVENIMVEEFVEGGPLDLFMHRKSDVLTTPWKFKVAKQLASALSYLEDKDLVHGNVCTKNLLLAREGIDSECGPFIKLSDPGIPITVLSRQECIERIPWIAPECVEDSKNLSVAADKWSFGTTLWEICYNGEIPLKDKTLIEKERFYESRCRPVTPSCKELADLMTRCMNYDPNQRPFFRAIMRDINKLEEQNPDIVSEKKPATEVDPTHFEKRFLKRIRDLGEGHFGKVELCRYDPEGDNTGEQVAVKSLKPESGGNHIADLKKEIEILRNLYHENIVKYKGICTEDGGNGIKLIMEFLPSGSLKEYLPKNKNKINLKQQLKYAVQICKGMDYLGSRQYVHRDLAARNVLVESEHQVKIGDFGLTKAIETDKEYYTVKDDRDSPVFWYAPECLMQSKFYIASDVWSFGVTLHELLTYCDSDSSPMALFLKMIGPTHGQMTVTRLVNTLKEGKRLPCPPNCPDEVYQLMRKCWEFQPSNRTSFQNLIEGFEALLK
Sequence of Tyrosine-protein kinase JAK2 (O60674 whole entry): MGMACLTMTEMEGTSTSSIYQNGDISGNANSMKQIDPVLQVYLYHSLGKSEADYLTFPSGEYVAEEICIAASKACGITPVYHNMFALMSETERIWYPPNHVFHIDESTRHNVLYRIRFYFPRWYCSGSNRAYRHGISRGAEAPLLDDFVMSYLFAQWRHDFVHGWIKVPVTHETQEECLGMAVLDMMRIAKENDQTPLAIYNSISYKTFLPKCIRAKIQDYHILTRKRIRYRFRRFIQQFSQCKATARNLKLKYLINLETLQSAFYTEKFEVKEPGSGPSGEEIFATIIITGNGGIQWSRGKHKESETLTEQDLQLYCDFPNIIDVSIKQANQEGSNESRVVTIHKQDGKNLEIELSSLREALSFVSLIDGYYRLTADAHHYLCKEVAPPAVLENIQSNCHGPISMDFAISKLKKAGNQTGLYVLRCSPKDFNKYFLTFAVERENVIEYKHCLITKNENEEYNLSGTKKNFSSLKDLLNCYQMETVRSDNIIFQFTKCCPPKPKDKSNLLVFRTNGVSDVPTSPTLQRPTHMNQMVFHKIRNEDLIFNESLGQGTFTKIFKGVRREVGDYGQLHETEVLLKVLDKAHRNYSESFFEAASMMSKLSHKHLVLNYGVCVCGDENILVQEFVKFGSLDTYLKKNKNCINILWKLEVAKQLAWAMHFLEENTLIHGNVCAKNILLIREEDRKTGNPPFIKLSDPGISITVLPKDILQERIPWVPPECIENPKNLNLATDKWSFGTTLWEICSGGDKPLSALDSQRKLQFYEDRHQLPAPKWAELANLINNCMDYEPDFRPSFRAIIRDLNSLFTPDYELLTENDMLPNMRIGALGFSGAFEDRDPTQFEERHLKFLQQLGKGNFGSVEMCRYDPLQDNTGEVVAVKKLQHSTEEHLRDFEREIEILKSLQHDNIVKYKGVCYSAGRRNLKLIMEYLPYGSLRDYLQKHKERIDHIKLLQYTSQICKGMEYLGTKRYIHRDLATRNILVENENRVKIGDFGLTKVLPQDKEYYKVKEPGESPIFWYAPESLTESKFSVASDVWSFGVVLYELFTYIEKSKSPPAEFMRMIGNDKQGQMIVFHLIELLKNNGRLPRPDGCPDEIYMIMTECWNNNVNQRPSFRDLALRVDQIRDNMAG
Sequence of CYP3A4 (P08684 whole entry): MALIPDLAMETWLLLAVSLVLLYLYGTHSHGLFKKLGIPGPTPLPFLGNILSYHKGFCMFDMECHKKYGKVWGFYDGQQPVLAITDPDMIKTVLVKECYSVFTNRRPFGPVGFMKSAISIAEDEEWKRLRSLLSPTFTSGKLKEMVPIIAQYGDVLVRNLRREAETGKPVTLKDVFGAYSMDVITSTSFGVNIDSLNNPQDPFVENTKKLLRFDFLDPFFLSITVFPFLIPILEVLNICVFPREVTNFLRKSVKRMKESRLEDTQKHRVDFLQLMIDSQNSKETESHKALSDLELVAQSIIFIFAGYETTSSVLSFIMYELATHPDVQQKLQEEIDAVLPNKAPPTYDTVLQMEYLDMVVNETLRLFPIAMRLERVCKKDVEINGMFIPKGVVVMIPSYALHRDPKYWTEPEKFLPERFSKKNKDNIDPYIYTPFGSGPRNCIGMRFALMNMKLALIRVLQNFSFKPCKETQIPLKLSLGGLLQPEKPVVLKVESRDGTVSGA
Sequence of Rho-associated protein kinase 1 (Homo sapiens) (Q13464 2-1354 limits assumed): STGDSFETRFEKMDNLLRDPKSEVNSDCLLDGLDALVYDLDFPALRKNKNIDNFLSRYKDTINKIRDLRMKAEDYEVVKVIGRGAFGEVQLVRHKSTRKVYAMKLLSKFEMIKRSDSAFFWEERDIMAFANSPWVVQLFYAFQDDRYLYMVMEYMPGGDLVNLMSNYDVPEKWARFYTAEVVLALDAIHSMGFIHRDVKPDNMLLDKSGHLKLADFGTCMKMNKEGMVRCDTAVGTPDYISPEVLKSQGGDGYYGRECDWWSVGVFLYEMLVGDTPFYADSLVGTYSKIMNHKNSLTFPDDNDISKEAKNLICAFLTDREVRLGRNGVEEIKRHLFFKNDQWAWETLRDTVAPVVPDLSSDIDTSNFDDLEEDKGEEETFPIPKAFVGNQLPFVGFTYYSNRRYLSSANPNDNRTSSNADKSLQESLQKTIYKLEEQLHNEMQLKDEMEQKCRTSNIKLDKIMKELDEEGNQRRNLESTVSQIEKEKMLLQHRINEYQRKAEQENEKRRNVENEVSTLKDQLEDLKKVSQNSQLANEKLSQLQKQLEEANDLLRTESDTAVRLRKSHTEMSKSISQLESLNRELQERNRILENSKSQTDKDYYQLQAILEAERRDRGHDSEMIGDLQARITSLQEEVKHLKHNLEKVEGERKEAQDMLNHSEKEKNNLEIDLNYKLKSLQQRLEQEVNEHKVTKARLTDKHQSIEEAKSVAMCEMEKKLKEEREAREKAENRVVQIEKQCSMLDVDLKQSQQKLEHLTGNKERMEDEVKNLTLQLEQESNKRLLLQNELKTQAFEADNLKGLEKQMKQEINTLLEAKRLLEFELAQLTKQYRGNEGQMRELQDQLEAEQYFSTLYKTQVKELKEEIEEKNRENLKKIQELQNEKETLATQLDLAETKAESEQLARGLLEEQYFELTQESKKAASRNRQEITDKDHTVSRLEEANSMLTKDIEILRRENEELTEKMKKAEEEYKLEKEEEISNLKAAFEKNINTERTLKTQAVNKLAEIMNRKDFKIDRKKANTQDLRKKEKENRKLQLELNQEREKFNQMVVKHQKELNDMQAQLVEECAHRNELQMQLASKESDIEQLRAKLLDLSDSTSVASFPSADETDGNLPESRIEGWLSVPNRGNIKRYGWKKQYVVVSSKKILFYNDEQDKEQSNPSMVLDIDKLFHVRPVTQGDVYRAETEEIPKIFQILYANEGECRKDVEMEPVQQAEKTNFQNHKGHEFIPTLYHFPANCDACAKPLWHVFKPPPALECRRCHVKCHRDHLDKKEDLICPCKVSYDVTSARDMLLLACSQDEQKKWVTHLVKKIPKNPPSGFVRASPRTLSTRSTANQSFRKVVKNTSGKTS
Sequence of Tyrosine-protein kinase Lck (Homo sapiens) (P06239 2-509 limits assumed): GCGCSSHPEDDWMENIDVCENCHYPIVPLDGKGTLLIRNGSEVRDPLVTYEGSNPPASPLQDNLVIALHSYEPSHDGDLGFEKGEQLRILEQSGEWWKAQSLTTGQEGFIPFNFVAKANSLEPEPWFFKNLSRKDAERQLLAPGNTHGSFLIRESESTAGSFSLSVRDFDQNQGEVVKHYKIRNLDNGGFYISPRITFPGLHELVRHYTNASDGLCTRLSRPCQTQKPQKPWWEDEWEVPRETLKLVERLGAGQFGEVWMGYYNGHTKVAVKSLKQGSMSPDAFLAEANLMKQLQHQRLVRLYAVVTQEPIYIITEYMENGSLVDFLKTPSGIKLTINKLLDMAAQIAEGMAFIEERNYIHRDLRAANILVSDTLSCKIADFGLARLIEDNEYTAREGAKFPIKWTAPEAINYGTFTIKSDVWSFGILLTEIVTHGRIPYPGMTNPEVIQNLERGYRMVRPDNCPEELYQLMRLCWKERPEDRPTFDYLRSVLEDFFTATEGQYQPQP
Sequence of Aurora kinase C (Homo sapiens) (Q9UQB9 whole entry): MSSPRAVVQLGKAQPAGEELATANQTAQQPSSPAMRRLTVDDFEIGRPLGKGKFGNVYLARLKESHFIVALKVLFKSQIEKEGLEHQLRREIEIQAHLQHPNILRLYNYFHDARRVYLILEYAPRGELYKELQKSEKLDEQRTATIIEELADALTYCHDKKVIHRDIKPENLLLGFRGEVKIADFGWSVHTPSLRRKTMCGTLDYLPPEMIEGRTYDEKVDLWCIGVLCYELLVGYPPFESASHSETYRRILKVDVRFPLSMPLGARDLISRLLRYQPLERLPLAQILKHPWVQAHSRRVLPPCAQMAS

Row | SMILES | Papp at 2 h (in vitro [1]) | IC50 [2] | IC50 [3] | IC50 [4] | CLint scaled at 0.75 h, 0.2 µM (in vitro [5]) | inhibition at 20 min, 5 µM (CYP3A4) | also measured
1 | C[C@@H]1CCN(C(=O)CC#N)C[C@@H]1n1c(=O)n(C)c2cnc3[nH]ccc3c21 (racemic) | 2.5 ×10⁻⁶ cm/s | – | – | – | – | – | –
2 | C[C@@H]1CCN(C(=O)CC#N)C[C@@H]1n1ccc2cnc3[nH]ccc3c21 (racemic) | 13 ×10⁻⁶ cm/s | 1 nM | 0.44 nM | 1.1 nM | 110 mL/min/kg | 90% | –
3 | C[C@@H]1CCN(C(=O)N2CCCCC2)C[C@@H]1n1c(=O)[nH]c2cnc3[nH]ccc3c21 (racemic) | 11 ×10⁻⁶ cm/s | 7 nM | 2.1 nM | 13 nM | 249 mL/min/kg | 11% | –
4 | Cc1cc2cnc3[nH]ccc3c2n1[C@H]1CN(C(=O)CC#N)CC[C@H]1C (racemic) | 26 ×10⁻⁶ cm/s | 0.3 nM | 0.17 nM | 0.43 nM | 154 mL/min/kg | 44% | –
5 | C[C@@H]1CCN(c2ccc(C#N)cn2)C[C@@H]1n1c(=O)[nH]c2cnc3[nH]ccc3c21 (racemic) | 8.8 ×10⁻⁶ cm/s | 4.5 nM | 1.6 nM | 9 nM | 195 mL/min/kg | 29% | –
6 | C[C@@H]1CCN(C(=O)CC#N)C[C@@H]1n1ncc2cnc3[nH]ccc3c21 (racemic) | 5.9 ×10⁻⁶ cm/s | 11 nM | 4.1 nM | 7.5 nM | – | – | –
7 | C[C@@H]1CCN(C(=O)CC#N)C[C@@H]1n1ccc2cnc3[nH]cc(C#N)c3c21 (racemic) | 13 ×10⁻⁶ cm/s | 4.1 nM | 0.38 nM | – | 419 mL/min/kg | 90% | –
8 | C[C@@H]1CCN(C(=O)C(C)(C)C#N)C[C@@H]1n1c(=O)[nH]c2cnc3[nH]ccc3c21 (racemic) | 6.3 ×10⁻⁶ cm/s | 15 nM | 7.1 nM | 58 nM | 44 mL/min/kg | 18% | –
9 | C[C@@H]1CCN(C(=O)CC#N)C[C@@H]1n1ccc2cnc3[nH]ccc3c21 | – | – | – | – | – | – | inhibition [6]: 55%; inhibition [7]: 67%; inhibition [8]: 75%
10 | C[C@@H]1CCN(C(=O)CC#N)C[C@@H]1n1cc(C#N)c2cnc3[nH]ccc3c21 (racemic) | 3.8 ×10⁻⁶ cm/s | 2.2 nM | 1.1 nM | – | 47 mL/min/kg | 91% | –
11 | C[C@@H]1CCN(C(=O)Cn2cnnn2)C[C@@H]1n1c(=O)[nH]c2cnc3[nH]ccc3c21 (racemic) | < 0.8 ×10⁻⁶ cm/s | 3.5 nM | 1.4 nM | 3.2 nM | – | 88% | –
12 | C[C@@H]1CCN(C(=O)CC#N)C[C@@H]1n1c(=O)[nH]c2cnc3[nH]ccc3c21 (racemic) | < 0.7 ×10⁻⁶ cm/s | – | – | – | – | 90% | clearance [9]: 113 mL/min/kg; Vd [10]: 3.62 L/kg; half-life [11]: 1.13 h; AUC(0-t) at 24 h [12]: 148 ng·h/mL; Cmax [13]: 2.98 ng/mL; half-life [14]: 11.8 h; AUC(0-t) at 24 h [15]: 11.8 ng·h/mL; bioavailability [16]: 11.2%; Tmax [17]: 0.25 h
13 | Cc1c[nH]c2ncc3ccn([C@H]4CN(C(=O)CC#N)CC[C@H]4C)c3c12 (racemic) | 23 ×10⁻⁶ cm/s | 4.9 nM | 2.5 nM | – | 309 mL/min/kg | 62% | –
14 | C[C@@H]1CCN(C(=O)CC#N)C[C@@H]1n1ccc2cnc3[nH]cc(C#N)c3c21 | – | – | – | – | – | – | Ratio IC50 (Homo sapiens): 10; inhibition [6]: 88%; inhibition [18]: 51%; inhibition [19]: 67%; inhibition [20]: 80%; inhibition [21]: 77%; inhibition [22]: 54%; inhibition [23]: 91%; inhibition [24]: 59%; inhibition [25]: 92%; inhibition [26]: 59%; inhibition [27]: 90%; inhibition [28]: 78%; inhibition [7]: 98%; inhibition [8]: 75%
15 | C[C@H]1CCN(C(=O)CC#N)C[C@H]1n1ccc2cnc3[nH]ccc3c21 | 21 ×10⁻⁶ cm/s | 390 nM | 200 nM | – | 89 mL/min/kg | 88% | –
16 | C[C@@H]1CCN(C(=O)N2CCOCC2)C[C@@H]1n1c(=O)[nH]c2cnc3[nH]ccc3c21 (racemic) | 1.3 ×10⁻⁶ cm/s | 12 nM | 5.5 nM | 19 nM | – | 61% | –
